Assay results reported in publication PMC7136958, “Targeting the pregnane X receptor using microbial metabolite mimicry” (EMBO Molecular Medicine, 2020).
“And” between values parts separate entries of the source, which are not always exact repeats. Identical values can stand only once.

What was measured:
pCAF = biological target: T1, pCAF (Homo sapiens, UniProt Q92831); test: Histone acetyltransferase assay pCAF (Reaction Biology); assay type: biochemical; details: substrate Histone H3, replicates
T1 construct: purchased Reaction Biology Corp; host or cells: E. coli
T1 sequence (Q92831 492-658): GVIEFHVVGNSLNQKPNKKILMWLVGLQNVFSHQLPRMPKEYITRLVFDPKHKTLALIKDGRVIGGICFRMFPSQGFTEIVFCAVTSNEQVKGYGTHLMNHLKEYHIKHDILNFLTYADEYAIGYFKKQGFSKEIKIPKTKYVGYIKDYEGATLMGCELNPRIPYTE
Description: (§1) The following […] assays (HDAC, SIRT1, PRMT1, PARP1, p300, pCAF) were performed by Reaction Biology Corp. FKK6 was screened at a single concentration of 10 μM in duplicate in two separate experiments. The appropriate controls for the individual assays are published. The overall […]
(§2) enzyme activity in the assay is reported as a % activity in DMSO control wells. Control IC50 […]
(§3) Briefly, for the Sirtuin (SIRT1) assay, human SIRT1 (GenBank
Accession No. NM012238) full -length N-terminal His-tag protein (MW 83.2 kDa) was purified after expression in E. coli. The reaction buffer was freshly prepared and constituted 50 mM Tris-HC l ( p H 8), 137 mM NaCl, 2.7 mM KCl, 1 mM MgCl2, and just before use, 1 mg/mL BSA and 1% DMSO was added. The substrate was a fluorogenic acetylated peptide of p53 residues 379-382 (RHKK (Ac)- AM C) . […]
8), 50 mM NaCl, 0.1 mM EDTA, 1 mM DTT, 1 mM PMSF, and 1% DMSO. […] The radioactivity in mixture is detected on washed filter paper using a scintillation counter. […]
Reader (Perkin Elmer) (Ex 360 nm/ Em 460 nm). For all enzyme activity assays, the percentage of enzyme activity (relative to DMSO controls) and IC50 values were calculated using GraphPad Prism 4 program (sigmoidal dose response equations). […]

SIRT1 = biological target: T2, SIRT1 (Homo sapiens, UniProt Q96EB6); test: Sirtuin (SIRT1) assay; assay type: biochemical; details: substrate Acetylated peptide, replicates
T2 construct: full -length N-terminal His-tag protein (MW 83.2 kDa); His-tag (N); purchased Reaction Biology Corp; host or cells: E. coli
T2 sequence (Q96EB6 whole entry): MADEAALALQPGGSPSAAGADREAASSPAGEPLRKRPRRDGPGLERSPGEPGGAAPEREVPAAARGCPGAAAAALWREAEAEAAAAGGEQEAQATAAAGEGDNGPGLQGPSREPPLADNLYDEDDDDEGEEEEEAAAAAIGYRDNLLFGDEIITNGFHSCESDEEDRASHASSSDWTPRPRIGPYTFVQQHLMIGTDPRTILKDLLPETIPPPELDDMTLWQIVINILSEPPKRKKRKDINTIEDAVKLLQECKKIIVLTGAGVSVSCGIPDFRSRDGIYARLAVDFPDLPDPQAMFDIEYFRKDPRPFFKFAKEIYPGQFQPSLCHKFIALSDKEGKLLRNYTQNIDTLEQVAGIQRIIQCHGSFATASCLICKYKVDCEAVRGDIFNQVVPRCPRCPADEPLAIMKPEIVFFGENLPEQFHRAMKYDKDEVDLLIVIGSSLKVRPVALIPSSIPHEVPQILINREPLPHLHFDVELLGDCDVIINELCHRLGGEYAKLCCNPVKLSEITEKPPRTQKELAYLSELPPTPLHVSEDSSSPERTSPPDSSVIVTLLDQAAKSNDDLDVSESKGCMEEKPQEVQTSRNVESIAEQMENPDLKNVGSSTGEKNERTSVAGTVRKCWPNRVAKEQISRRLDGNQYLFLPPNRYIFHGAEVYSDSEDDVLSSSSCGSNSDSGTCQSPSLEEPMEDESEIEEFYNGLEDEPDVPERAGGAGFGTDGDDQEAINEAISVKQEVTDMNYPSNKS
Description: Software Tool and reprinted with permission from KINOME scan®, a division of DiscoveRx […]
as §1, §2, §3
Accession No. NM012238) full -length N-terminal His-tag protein (MW 83.2 kDa) was purified after expression in E. coli. The reaction buffer was freshly prepared and constituted 50 mM Tris-HC l ( p H 8), 137 mM NaCl, 2.7 mM KCl, 1 mM MgCl2, and just before use, 1 mg/mL BSA and 1% DMSO was added. The substrate was a fluorogenic acetylated peptide of p53 residues 379-382 (RHKK (Ac)- AM C) . In th e multi-well format, the 2X enzyme was mixed with the reaction buffer followed by compound (in 100% DMSO) titration via Acoustic technology (Echo550; LabCyte Inc, Sunnyvale, CA) in the nanoliter range. The mixture was spun down and 2X substrate (including NAD+) was added to initiate the reaction at 30° C at 2h under seal. […] Fluorescence kinetic measurements were conducted for 1.5 h in 15 min intervals using Envision (Ex 360nm/Em 460nm). […]

[1] = read-out: % Enzyme Activity to DMSO controls

With `C#CCC(O)(c1ccncc1)c1cc2ccccc2n1S(=O)(=O)c1ccccc1` (stereo not shown) [FKK6] the “% Enzyme Activity to DMSO controls” value (pCAF; 10 μM) was 101.68% and 104.61% and 104.47%, the remaining activity at 10 µM (pCAF; [1]) was 100% and the “% Enzyme Activity to DMSO controls” value (SIRT1; 10 μM) was 100.03% and 99.84% and 94.47%. For the same molecule, the remaining activity at 10 µM (SIRT1; [1]) was 100%.
